Data reported in ChEMBL document CHEMBL1143262, “1-Oxo-3-substitute-isothiochroman-4-carboxylic acid compounds: synthesis and biological activities of FAS inhibition” (Bioorg Med Chem Lett, 2009).

What was measured:
fatty acid synthase [1] = assay: Therapeutic index, ratio of TC50 for HLF to IC50 for Sprague-Dawley rat liver fatty acid synthase; details: human (HLF cells), HLF cells versus rat liver fatty acid synthase
Fatty acid synthase [2] = biological target: Fatty acid synthase (Rattus norvegicus, UniProt P12785); assay: Inhibition of Sprague-Dawley rat liver fatty acid synthase
Chain of Fatty acid synthase (P12785 whole entry): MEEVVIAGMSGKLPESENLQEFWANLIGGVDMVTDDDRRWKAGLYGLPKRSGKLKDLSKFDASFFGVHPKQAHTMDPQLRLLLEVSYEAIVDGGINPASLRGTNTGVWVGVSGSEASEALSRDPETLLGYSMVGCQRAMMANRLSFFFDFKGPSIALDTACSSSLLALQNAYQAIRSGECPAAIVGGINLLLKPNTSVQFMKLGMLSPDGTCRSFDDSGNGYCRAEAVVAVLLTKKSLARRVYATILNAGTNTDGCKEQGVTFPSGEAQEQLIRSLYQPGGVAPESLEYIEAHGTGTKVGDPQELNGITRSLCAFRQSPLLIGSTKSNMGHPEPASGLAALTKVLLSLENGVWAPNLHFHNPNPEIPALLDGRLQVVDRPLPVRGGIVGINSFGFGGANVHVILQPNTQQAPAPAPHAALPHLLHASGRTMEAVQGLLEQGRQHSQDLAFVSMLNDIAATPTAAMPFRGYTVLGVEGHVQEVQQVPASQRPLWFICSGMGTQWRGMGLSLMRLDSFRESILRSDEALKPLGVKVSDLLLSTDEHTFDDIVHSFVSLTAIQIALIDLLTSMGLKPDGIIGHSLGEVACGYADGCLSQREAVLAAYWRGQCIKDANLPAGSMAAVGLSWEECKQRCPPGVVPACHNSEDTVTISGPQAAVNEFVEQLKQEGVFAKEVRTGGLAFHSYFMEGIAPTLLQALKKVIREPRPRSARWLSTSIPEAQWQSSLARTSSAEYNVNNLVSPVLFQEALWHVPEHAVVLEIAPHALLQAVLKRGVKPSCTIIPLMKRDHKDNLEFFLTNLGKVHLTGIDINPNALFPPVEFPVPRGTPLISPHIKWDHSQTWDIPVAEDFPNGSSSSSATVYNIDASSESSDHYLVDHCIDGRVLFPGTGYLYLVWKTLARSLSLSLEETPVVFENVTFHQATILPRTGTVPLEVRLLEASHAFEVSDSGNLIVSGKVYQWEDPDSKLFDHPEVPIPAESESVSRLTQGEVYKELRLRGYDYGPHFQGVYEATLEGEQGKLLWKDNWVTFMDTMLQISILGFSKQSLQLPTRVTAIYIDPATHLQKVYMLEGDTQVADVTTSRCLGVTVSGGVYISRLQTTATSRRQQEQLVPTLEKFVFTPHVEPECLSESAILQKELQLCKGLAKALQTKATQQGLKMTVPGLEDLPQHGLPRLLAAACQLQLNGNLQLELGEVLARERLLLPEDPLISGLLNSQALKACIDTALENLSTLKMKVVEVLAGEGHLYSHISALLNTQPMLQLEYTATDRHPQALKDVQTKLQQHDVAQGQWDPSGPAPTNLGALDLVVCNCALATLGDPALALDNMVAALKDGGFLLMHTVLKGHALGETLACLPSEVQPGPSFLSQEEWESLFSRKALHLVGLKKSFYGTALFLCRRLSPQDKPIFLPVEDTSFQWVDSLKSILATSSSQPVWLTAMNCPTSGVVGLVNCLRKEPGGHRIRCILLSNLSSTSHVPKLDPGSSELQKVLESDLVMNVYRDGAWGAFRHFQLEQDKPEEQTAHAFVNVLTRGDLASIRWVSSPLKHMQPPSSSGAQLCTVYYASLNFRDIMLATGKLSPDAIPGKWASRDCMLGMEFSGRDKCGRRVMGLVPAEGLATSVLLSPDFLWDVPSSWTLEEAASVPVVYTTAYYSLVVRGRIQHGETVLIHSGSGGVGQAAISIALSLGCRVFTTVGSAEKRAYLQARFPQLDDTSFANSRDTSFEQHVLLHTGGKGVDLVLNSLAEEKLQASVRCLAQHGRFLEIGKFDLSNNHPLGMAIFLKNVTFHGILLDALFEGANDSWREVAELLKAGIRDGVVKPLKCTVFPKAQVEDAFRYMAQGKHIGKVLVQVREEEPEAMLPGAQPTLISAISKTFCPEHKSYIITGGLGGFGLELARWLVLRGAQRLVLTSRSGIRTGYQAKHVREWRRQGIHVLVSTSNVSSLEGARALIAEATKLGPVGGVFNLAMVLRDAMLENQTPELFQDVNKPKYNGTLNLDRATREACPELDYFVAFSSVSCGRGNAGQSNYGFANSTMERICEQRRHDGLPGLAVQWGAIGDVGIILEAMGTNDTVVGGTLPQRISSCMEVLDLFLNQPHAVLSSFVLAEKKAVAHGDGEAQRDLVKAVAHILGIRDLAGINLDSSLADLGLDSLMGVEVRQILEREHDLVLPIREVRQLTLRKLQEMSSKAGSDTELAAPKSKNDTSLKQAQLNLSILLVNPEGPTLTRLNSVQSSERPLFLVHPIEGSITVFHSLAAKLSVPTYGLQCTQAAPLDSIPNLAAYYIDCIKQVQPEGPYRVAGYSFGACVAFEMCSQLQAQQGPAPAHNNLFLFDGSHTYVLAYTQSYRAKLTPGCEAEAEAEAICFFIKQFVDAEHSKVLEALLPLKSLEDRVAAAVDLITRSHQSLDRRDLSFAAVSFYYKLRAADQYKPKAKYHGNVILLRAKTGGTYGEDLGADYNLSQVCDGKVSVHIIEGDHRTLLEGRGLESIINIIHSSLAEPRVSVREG

[3] = biological target: Fatty acid synthase (Rattus norvegicus) (UniProt P12785); assay: Inhibition of Sprague-Dawley rat liver fatty acid synthase at 60 umol
Chain of Fatty acid synthase (Rattus norvegicus) (P12785 whole entry): as above

[4] = Cytotoxicity against HLF by MTT assay; details: human, HLF cells; read-out: TC50 (the source's name)

SMILES	IC50 (Fatty acid synthase [2]) [µM]	inhibition [3] [%]	selectivity ratio (fatty acid synthase [1])	CC50 [4] [µM]
CCCCCCCCCC[C@H]1SC(=O)c2ccccc2[C@@H]1C(=O)O (relative stereo)	4.11	90.2	2.92	12
CCCCCCCCCCC[C@H]1SC(=O)c2ccccc2[C@@H]1C(=O)O (relative stereo)	3.62	95.7	2.67	9.67
CCCCCC[C@H]1SC(=O)c2ccccc2[C@@H]1C(=O)O (relative stereo)	36.7	40.4		> 200
CCCCCCC[C@H]1SC(=O)c2ccccc2[C@@H]1C(=O)O (relative stereo)	26.9	43.1		> 200

Second part, led by results:

IC50 (Fatty acid synthase [2]) [µM]	inhibition [3] [%]	SMILES	selectivity ratio (fatty acid synthase [1])	CC50 [4] [µM]
8.29	77.5	CCCCCCCCCC1SC(=O)c2ccccc2[C@@H]1C(=O)O (stereo not given in full)	10.7	88.6
15.5		C=C1C(=O)O[C@H](CCCCCCCC)[C@H]1C(=O)O (relative stereo)	5.61	87.1
12.3	50.9	CCCCCCCC[C@H]1SC(=O)c2ccccc2[C@@H]1C(=O)O (relative stereo)	6.83	84.2
